Assay results as given in article PMC8018242, “AbhemC encoding porphobilinogen deaminase plays an important role in chlorophyll biosynthesis and function in albino Ananas comosus var. bracteatus leaves” (PeerJ, 2021).

Biological target: T1, AbHEMC (porphobilinogen deaminase, PBGD) (Ananas comosus, UniProt A0A1B2LUE6)
T1 construct: gene hemC; E. coli Rosetta-gami (DE3); about 45 kD on SDS-PAGE
Experiment: in vitro PBGD activity assay (method of Lee et al. […])
Assay type: biochemical
Conditions: recombinant fusion protein; substrate inferred from the named PBGD activity, assay conditions not given

T1 sequence (A0A1B2LUE6 entry or part of it): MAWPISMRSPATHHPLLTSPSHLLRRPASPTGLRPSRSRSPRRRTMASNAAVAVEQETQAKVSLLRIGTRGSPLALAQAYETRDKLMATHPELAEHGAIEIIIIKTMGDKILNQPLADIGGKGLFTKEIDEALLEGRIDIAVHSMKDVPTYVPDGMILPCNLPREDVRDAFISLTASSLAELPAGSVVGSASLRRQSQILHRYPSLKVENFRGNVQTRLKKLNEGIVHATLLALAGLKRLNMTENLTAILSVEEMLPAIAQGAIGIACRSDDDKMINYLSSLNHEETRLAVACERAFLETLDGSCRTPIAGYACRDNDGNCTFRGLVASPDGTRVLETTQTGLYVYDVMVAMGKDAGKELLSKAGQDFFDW

NCc1[nH]cc(CCC(=O)O)c1CC(=O)O [porphobilinogen]
in vitro PBGD activity assay (method of Lee et al. 1992): in vitro analysis showed that the prokaryotic-expressed AbHEMC protein had PBGD activity
